In a compilation of properties of binary mixtures (doi:10.1007/s10953-014-0137-8):

Assay: xn = mol fraction of the nth substance listed
Settings: 101 kPa

CCCC[n+]1ccn(C)c1.F[B-](F)(F)F + O
Settings | electrical conductivity [S/m] | speed of sound [m/s]
293.15 K, x2 = 0.0964 | – | 1580.4
293.15 K, x2 = 0.2639 | – | 1586.2
293.15 K, x2 = 0.3058 | 1 | –
293.15 K, x2 = 0.3901 | – | 1590.2
293.15 K, x2 = 0.4991 | 1.67 | –
293.15 K, x2 = 0.5121 | – | 1596.5
293.15 K, x2 = 0.6369 | – | 1601.7
293.15 K, x2 = 0.7002 | 3.02 | 1606.4
293.15 K, x2 = 0.7456 | – | 1608.6
293.15 K, x2 = 0.7866 | – | 1609.7
293.15 K, x2 = 0.9 | – | 1602.3
293.15 K, x2 = 0.9001 | 4.22 | –
293.15 K, x2 = 0.9252 | 4.41 | 1593.6
293.15 K, x2 = 0.9496 | 4.31 | 1581.6
293.15 K, x2 = 0.9744 | 3.76 | 1559.6
298.15 K, x2 = 0.1014 | 0.595 | –
298.15 K, x2 = 0.2639 | – | 1574.3
298.15 K, x2 = 0.3058 | 1.18 | –
298.15 K, x2 = 0.3901 | – | 1579.2
298.15 K, x2 = 0.4991 | 1.97 | –
298.15 K, x2 = 0.5121 | – | 1585.1
298.15 K, x2 = 0.6369 | – | 1591.6
298.15 K, x2 = 0.7002 | 3.41 | 1596.4
298.15 K, x2 = 0.7456 | – | 1598.6
298.15 K, x2 = 0.7866 | – | 1600.5
298.15 K, x2 = 0.9 | – | 1598.5
298.15 K, x2 = 0.9001 | 4.74 | –
298.15 K, x2 = 0.9252 | 5.3 | 1592.2
298.15 K, x2 = 0.9744 | 4.22 | 1564.4
303.15 K, x2 = 0.0964 | – | 1557.7
303.15 K, x2 = 0.1014 | 0.709 | –
303.15 K, x2 = 0.2639 | – | 1563
303.15 K, x2 = 0.3058 | 1.36 | –
303.15 K, x2 = 0.3901 | – | 1567.7
303.15 K, x2 = 0.4991 | 2.2 | –
303.15 K, x2 = 0.5121 | – | 1573.8
303.15 K, x2 = 0.6369 | – | 1581.8
303.15 K, x2 = 0.7002 | 3.97 | 1586.6
303.15 K, x2 = 0.7456 | – | 1590.2
303.15 K, x2 = 0.7866 | – | 1592.6
303.15 K, x2 = 0.8493 | 5.68 | 1595.5
303.15 K, x2 = 0.9001 | 5.67 | –
303.15 K, x2 = 0.9496 | 5.39 | 1582.7
303.15 K, x2 = 0.9744 | 4.9 | 1567.9
308.15 K, x2 = 0.0964 | – | 1545.7
308.15 K, x2 = 0.1014 | 0.848 | –
308.15 K, x2 = 0.2639 | – | 1551
308.15 K, x2 = 0.3058 | 1.51 | –
308.15 K, x2 = 0.3901 | – | 1556.3
308.15 K, x2 = 0.4991 | 2.51 | –
308.15 K, x2 = 0.5121 | – | 1561.8
308.15 K, x2 = 0.7866 | – | 1582.8
308.15 K, x2 = 0.8493 | 6.09 | 1587.5
308.15 K, x2 = 0.9 | – | 1588.3
308.15 K, x2 = 0.9001 | 6.39 | –
308.15 K, x2 = 0.9252 | 6.6 | 1586
308.15 K, x2 = 0.9496 | 6.32 | 1581.6
308.15 K, x2 = 0.9744 | 5.08 | 1570.2
313.15 K, x2 = 0.0964 | – | 1534.6
313.15 K, x2 = 0.2639 | – | 1539.6
313.15 K, x2 = 0.3058 | 1.76 | –
313.15 K, x2 = 0.3901 | – | 1544.9
313.15 K, x2 = 0.4991 | 2.79 | –
313.15 K, x2 = 0.5121 | – | 1550.6
313.15 K, x2 = 0.6369 | – | 1559
313.15 K, x2 = 0.7002 | 4.67 | 1565
313.15 K, x2 = 0.7456 | – | 1569.3
313.15 K, x2 = 0.7866 | – | 1573.2
313.15 K, x2 = 0.9 | – | 1582.1
313.15 K, x2 = 0.9001 | 6.94 | –
313.15 K, x2 = 0.9252 | 7.12 | 1581.6
313.15 K, x2 = 0.9496 | 6.65 | 1579.4
318.15 K, x2 = 0.1014 | 1.12 | –
318.15 K, x2 = 0.4991 | 3.1 | –
318.15 K, x2 = 0.5121 | – | 1539.3
318.15 K, x2 = 0.7002 | 5.29 | 1554
318.15 K, x2 = 0.7456 | – | 1558.4
318.15 K, x2 = 0.7866 | – | 1562
318.15 K, x2 = 0.8493 | 7.3 | 1570.2
318.15 K, x2 = 0.9001 | 7.66 | –
318.15 K, x2 = 0.9252 | 7.99 | 1576.4
318.15 K, x2 = 0.9496 | 7.34 | 1576.4
318.15 K, x2 = 0.9744 | 6.16 | 1571.6
323.15 K, x2 = 0.0964 | – | 1511.5
323.15 K, x2 = 0.1014 | 1.37 | –
323.15 K, x2 = 0.2639 | – | 1516.4
323.15 K, x2 = 0.3058 | 2.3 | –
323.15 K, x2 = 0.3901 | – | 1522.1
323.15 K, x2 = 0.4991 | 3.31 | –
323.15 K, x2 = 0.5121 | – | 1528
323.15 K, x2 = 0.6369 | – | 1534.5
323.15 K, x2 = 0.7002 | 5.74 | 1542.4
323.15 K, x2 = 0.7456 | – | 1546.8
323.15 K, x2 = 0.7866 | – | 1552.2
323.15 K, x2 = 0.9 | – | 1567.8
323.15 K, x2 = 0.9001 | 8.59 | –
323.15 K, x2 = 0.9252 | 8.71 | 1570.5
